Measurements as given in ChEMBL document CHEMBL3627713, “Triazole linked mono carbonyl curcumin-isatin bifunctional hybrids as novel anti tubulin agents: Design, synthesis, biological evaluation and molecular modeling studies” (Bioorg Med Chem, 2015).

What was measured:
Format in all cases: functional
PC-3 = experiment: Cytotoxicity against human PC3 cells assessed as growth inhibition at 50 uM after 48 hrs by sulforhodamine B assay relative to control; settings: PC-3, 48 h, read-out: GI
THP-1 = experiment: Cytotoxicity against human THP1 cells assessed as growth inhibition at 50 uM after 48 hrs by sulforhodamine B assay relative to control; settings: THP-1, 48 h, read-out: GI
COLO 205 = experiment: Cytotoxicity against human COLO205 cells assessed as growth inhibition at 50 uM after 48 hrs by sulforhodamine B assay relative to control; settings: COLO 205, 48 h, read-out: GI
HCT-116 = experiment: Cytotoxicity against human HCT116 cells assessed as growth inhibition at 50 uM after 48 hrs by sulforhodamine B assay relative to control; settings: HCT-116, 48 h, read-out: GI

COc1cc(/C=C/C(=O)/C=C/c2ccc(Cl)cc2)ccc1OCc1cn(CCN2C(=O)C(=O)c3ccccc32)nn1
inhibition of growth at 50 µM (PC-3): 45%
inhibition of growth at 50 µM (THP-1): 49%
inhibition of growth at 50 µM (COLO 205): 50%
inhibition of growth at 50 µM (HCT-116): 51%

COc1cc(/C=C/C(=O)/C=C/c2cccc([N+](=O)[O-])c2)ccc1OCc1cn(CCN2C(=O)C(=O)c3ccccc32)nn1
inhibition of growth at 50 µM (PC-3): 20%
inhibition of growth at 50 µM (THP-1): 24%
inhibition of growth at 50 µM (COLO 205): 22%
inhibition of growth at 50 µM (HCT-116): 25%

COc1cc(/C=C/C(=O)/C=C/c2cccc(Br)c2)ccc1OCc1cn(CCN2C(=O)C(=O)c3cc(Br)ccc32)nn1
inhibition of growth at 50 µM (PC-3): 13%
inhibition of growth at 50 µM (THP-1): 12%
inhibition of growth at 50 µM (COLO 205): 11%
inhibition of growth at 50 µM (HCT-116): 13%

COc1cc(/C=C/C(=O)/C=C/c2ccco2)ccc1OCc1cn(CCN2C(=O)C(=O)c3cc(Cl)ccc32)nn1
inhibition of growth at 50 µM (PC-3): 40%
inhibition of growth at 50 µM (THP-1): 41%
inhibition of growth at 50 µM (COLO 205): 39%
inhibition of growth at 50 µM (HCT-116): 47%

COc1cc(/C=C/C(=O)/C=C/c2ccc([N+](=O)[O-])cc2)ccc1OCc1cn(CCN2C(=O)C(=O)c3cc(Br)ccc32)nn1
inhibition of growth at 50 µM (PC-3): 10%
inhibition of growth at 50 µM (COLO 205): 10%
inhibition of growth at 50 µM (HCT-116): 10%

COc1cc(/C=C/C(=O)/C=C/c2ccc(Br)cc2)ccc1OCc1cn(CCN2C(=O)C(=O)c3ccccc32)nn1
inhibition of growth at 50 µM (PC-3): 44%
inhibition of growth at 50 µM (THP-1): 48%
inhibition of growth at 50 µM (COLO 205): 47%
inhibition of growth at 50 µM (HCT-116): 49%

COc1cc(/C=C/C(=O)/C=C/c2ccc(Cl)cc2)ccc1OCc1cn(CCN2C(=O)C(=O)c3cc(Br)ccc32)nn1
inhibition of growth at 50 µM (PC-3): 23%
inhibition of growth at 50 µM (THP-1): 25%
inhibition of growth at 50 µM (COLO 205): 24%
inhibition of growth at 50 µM (HCT-116): 29%

COc1cc(/C=C/C(=O)/C=C/c2ccc([N+](=O)[O-])cc2)ccc1OCc1cn(CCN2C(=O)C(=O)c3ccccc32)nn1
inhibition of growth at 50 µM (PC-3): 33%
inhibition of growth at 50 µM (THP-1): 35%
inhibition of growth at 50 µM (COLO 205): 35%
inhibition of growth at 50 µM (HCT-116): 39%

COc1cc(/C=C/C(=O)/C=C/c2cccs2)ccc1OCc1cn(CCN2C(=O)C(=O)c3cc(Br)ccc32)nn1
inhibition of growth at 50 µM (PC-3): 28%
inhibition of growth at 50 µM (THP-1): 31%
inhibition of growth at 50 µM (COLO 205): 30%
inhibition of growth at 50 µM (HCT-116): 34%

COc1ccccc1/C=C/C(=O)/C=C/c1ccc(OCc2cn(CCN3C(=O)C(=O)c4cc(Br)ccc43)nn2)c(OC)c1
inhibition of growth at 50 µM (PC-3): 42%
inhibition of growth at 50 µM (THP-1): 43%
inhibition of growth at 50 µM (COLO 205): 47%
inhibition of growth at 50 µM (HCT-116): 50%

COc1cc(/C=C/C(=O)/C=C/c2ccc(Cl)cc2)ccc1OCc1cn(CCN2C(=O)C(=O)c3cc(Cl)ccc32)nn1
inhibition of growth at 50 µM (PC-3): 25%
inhibition of growth at 50 µM (THP-1): 30%
inhibition of growth at 50 µM (COLO 205): 29%
inhibition of growth at 50 µM (HCT-116): 36%

COc1cc(/C=C/C(=O)/C=C/c2ccc([N+](=O)[O-])cc2)ccc1OCc1cn(CCN2C(=O)C(=O)c3cc(Cl)ccc32)nn1
inhibition of growth at 50 µM (PC-3): 10%
inhibition of growth at 50 µM (HCT-116): 11%

COc1cc(/C=C/C(=O)/C=C/c2ccc(Br)cc2)ccc1OCc1cn(CCN2C(=O)C(=O)c3cc(Br)ccc32)nn1
inhibition of growth at 50 µM (PC-3): 17%
inhibition of growth at 50 µM (THP-1): 21%
inhibition of growth at 50 µM (COLO 205): 19%
inhibition of growth at 50 µM (HCT-116): 20%

COc1cc(/C=C/C(=O)/C=C/c2cccs2)ccc1OCc1cn(CCN2C(=O)C(=O)c3cc(Cl)ccc32)nn1
inhibition of growth at 50 µM (PC-3): 37%
inhibition of growth at 50 µM (THP-1): 38%
inhibition of growth at 50 µM (COLO 205): 35%
inhibition of growth at 50 µM (HCT-116): 44%

COc1cccc(/C=C/C(=O)/C=C/c2ccc(OCc3cn(CCN4C(=O)C(=O)c5cc(Br)ccc54)nn3)c(OC)c2)c1
inhibition of growth at 50 µM (PC-3): 51%
inhibition of growth at 50 µM (THP-1): 54%
inhibition of growth at 50 µM (COLO 205): 56%
inhibition of growth at 50 µM (HCT-116): 57%

COc1cc(/C=C/C(=O)/C=C/c2cccc3ccccc23)ccc1OCc1cn(CCN2C(=O)C(=O)c3cc(Br)ccc32)nn1
inhibition of growth at 50 µM (PC-3): 37%
inhibition of growth at 50 µM (THP-1): 40%
inhibition of growth at 50 µM (COLO 205): 40%
inhibition of growth at 50 µM (HCT-116): 44%
